# Measurements as given in patent EP0083204A2, “2-Aminophenol derivatives and process for their preparation” (ONO PHARMACEUTICAL CO., LTD., priority 1981, dated 1983).
# pIC50: −log10 of the molar value. Counter-ions that a name gives are not always drawn.
# Assays:
# [1] = biological target: T1, 5-lipoxygenase (Cavia porcellus, UniProt A0A286X958); experiment: assay system evaluating only the inhibitory activity on 5-lipoxygenase (105,000 x g supernate of sonicated polymorphonuclear leukocytes); type: biochemical; details: supernate of sonicated guinea pig polymorphonuclear leukocytes, 30°C, 5 minutes, 1 mM calcium chloride; production of 5-HETE, 5,12-diHETE and leukotriene B; read-out: concentrations required to produce 50% inhibitions on 5-lipoxygenase
# T1 construct: The supernate was used as an enzyme throughout this work; from tissue; host or cells: 105,000 x g supernatant of sonicated, casein-elicited guinea pig polymorphonuclear leukocytes
# T1 sequence (A0A286X958 1-674): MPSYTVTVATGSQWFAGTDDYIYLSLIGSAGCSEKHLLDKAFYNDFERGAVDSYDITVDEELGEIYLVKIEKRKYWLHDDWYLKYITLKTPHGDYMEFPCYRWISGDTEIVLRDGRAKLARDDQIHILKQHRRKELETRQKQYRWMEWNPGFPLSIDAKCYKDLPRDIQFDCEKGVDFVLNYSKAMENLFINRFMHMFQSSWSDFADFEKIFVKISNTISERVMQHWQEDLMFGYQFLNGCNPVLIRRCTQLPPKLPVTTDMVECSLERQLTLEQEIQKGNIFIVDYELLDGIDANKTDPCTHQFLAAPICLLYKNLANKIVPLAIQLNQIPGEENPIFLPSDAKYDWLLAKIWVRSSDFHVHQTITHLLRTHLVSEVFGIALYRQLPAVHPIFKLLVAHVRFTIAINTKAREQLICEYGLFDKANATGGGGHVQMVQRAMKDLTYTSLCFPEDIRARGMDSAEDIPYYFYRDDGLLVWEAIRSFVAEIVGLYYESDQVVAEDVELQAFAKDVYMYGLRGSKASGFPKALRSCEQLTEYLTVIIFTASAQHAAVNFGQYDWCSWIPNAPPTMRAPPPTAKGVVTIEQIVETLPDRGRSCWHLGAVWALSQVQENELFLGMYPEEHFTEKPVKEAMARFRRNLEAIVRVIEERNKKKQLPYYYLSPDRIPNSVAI
# Experimental: The experiments for evaluating only the inhibitory activity on 5-lipoxygenase were carried out as follows: Guinea pig was treated by casein and harvested polymorphonuclear leukocytes from cavity were sonicated, followed by the centrifugation at 105,000 x g. The supernate was used as an enzyme throughout this work. The supernate (100 - 500 ug of protein) was incubated for 5 minutes at 30°C with [^14C] arachidonic acid and 1 mM calcium chloride in the presence or in the absence of test compound. The reaction was terminated by the addition of ether. Ether extract was separated by thin layer chromatography using silica gel plates to observe production of 5-HETE, 5,12-diHETE and leukotriene B. In this assay system, the concentrations for 50% inhibitions on 5- lipoxygenase were evaluated by using the concentrations of compounds of the present invention required 50% inhibitions on the production of 5-HETE, 5,12-diHETE and leukotrien B.
# [2] = tested on: mice; experiment: acute toxicity by intravenous administration; type: in vivo, mouse; details: intravenously administered to tail vein in ten mice at the dose of 30 mg/kg
# Experimental: On the other hand, all extent of the compounds of the present invention were confirmed that their acute toxicities were more than 30 mg/kg by intravenous administration. Therefore, 2-aminophenol derivatives of the present invention may be considered to be sufficiently safe and suitable for medical use.
# [3] = tested on: cyclooxygenase; experiment: standard assay system using polymorphonuclear leukocytes (production of HHT or TXB2 from [14C] arachidonic acid); type: cell-based; details: intact polymorphonuclear leukocytes from guinea pig, 4 x 10^7 cells, 37°C, 5 minutes, read-out: concentrations for 50% inhibitions on cyclooxygenase
# Experimental: (§1) For example, in standard assay system using polymorphonuclear leukocytes from guinea pig (details of experiments were described hereafter), (a) the concentrations of 2-amino-4-(4-methylphenylthio)phenol hydrochloride for 50% inhibitions on 5-lipoxygenase and on cyclooxygenase were 0.2 µM and 0.3 µM, respectively, (b) the concentrations of 2-amino-4-phenylthiophenol hydrochloride for 50% inhibitions on 5- lipoxygenase and on cyclooxygenase were 0.1 µM and 0.3 uM, respectively and (c) the concentrations of 2-amino-4-(4-chlorophenylthio)phenol hydrochloride for 50% inhibitions on 5-lipoxygenase and on cyclooxygenase were 0.5 µM and 0.3 µM, respectively. Therefore, it is comfirmed that these compounds (a), (b) and (c) inhibit both 5-lipoxygenase and cyclooxygenase at the same time at very low concentrations.
# (§2) The experiments for screening using polymorphonuclear leukocytes were carried out as follows: The reaction mixture (0.1 ml) containing 5 µmole of potassium phosphate at pH 7.4, 0.1 µmole of calcium chloride, polymorphonuclear leukocytes prepared from guinea pigs (4 x 10^7 cells) and test compound, was preincubated for 5 minutes at 37°C. The reaction was started by the addition of [^14C] arachidonic acid ([…] dpm, 1.8 nmole), followed by the incubation at 37°C for 5 minutes. The reaction was terminated by the addition of 0.3 ml of a mixture of ether/ methanol/lM citric acid (30/4/1). The organic phase (20 µl) was applied to silica gel plate. Thin layer chromatography was performed to separate each product with solvent system of ether/petroleum ether/acetic acid (85/15/0.1).
# (§3) Activity of 5-lipoxygenase and cyclooxygenase were calculated from the measurements of the production of 5-HETE, and 12L-hydroxy-5,8,10-[…] acid (i.e. HHT) or thromboxane B2 (i.e. TXB2), respectively [it has been known that HHT and TXB2 are the last products of the system concerning cyclooxygenase in the arachidonate cascade]. […]
# [4] = biological target: T1, 5-lipoxygenase; experiment: standard assay system using polymorphonuclear leukocytes (production of 5-HETE from [14C] arachidonic acid); type: cell-based; details: intact polymorphonuclear leukocytes from guinea pig, 4 x 10^7 cells, 37°C, 5 minutes, read-out: concentrations for 50% inhibitions on 5-lipoxygenase
# Experimental: as §1, §2, §3
Compound,pIC50 [1],mortality [2],pIC50 [3],pIC50 [4]
Cl.Nc1cc(-c2nc3ccccc3s2)ccc1O [2-Amino-4-(2-benzothiazolyl)phenol hydrochloride],6.64,no mouse was dead,,
Cc1ccc(Sc2ccc(O)c(N)c2)cc1.Cl [2-Amino-4-(4-methylphenylthio)phenol hydrochloride],6.70,no mouse was dead,6.52,6.70
"Nc1cc([S+]([O-])c2ccccc2)ccc1O (stereo not drawn) [2-amino-4-benzenesulfinylphenol, 2-Amino-4-benzenesulfinylphenol]",4.96,,,
"Nc1cc(C#Cc2ccccc2)ccc1O [2-amino-4-phenylethynylphenol, 2-Amino-4-phenylethynylphenol]",6.16,no mouse was dead,,
"Nc1cc(Sc2ccccc2)ccc1O [2-amino-4-phenylthiophenol hydrochloride, 2-Amino-4-phenylthiophenol hydrochloride]",6.51,no mouse was dead,6.52,7.00
Nc1cc(NC(=O)c2ccccc2)ccc1O [N-(3-Amino-4-hydroxyphenyl)benzamide hydrochloride],4.74,,,

# Now from value to molecule, other results behind:
pIC50 [1],Compound,mortality [2],pIC50 [3],pIC50 [4]
6.32,"Cc1cc(C)c(Sc2ccc(O)c(N)c2)c(C)c1 [2-Amino-4-(2,4,6-trimethylphenylthio)phenol hydrochloride]",,,
5.82,Nc1cc(Sc2ccc(O)c(N)c2)ccc1O [2-Amino-4-(3-amino-4-hydroxyphenylthio)phenol],,,
6.52,Nc1cc(Sc2ccc(Cl)cc2)ccc1O [2-Amino-4-(4-chlorophenylthio)phenol hydrochloride],,6.52,6.30
6.49,CC(C)(C)c1ccc(Sc2ccc(O)c(N)c2)cc1 [2-Amino-4-(4-tert-butylphenylthio)phenol hydrochloride],,,
6.34,"Nc1cc(Sc2ccc(O)cc2)ccc1O [2-amino-4-(4-hydroxyphenylthio)phenol, 2-Amino-4-(4-hydroxyphenylthio)phenol]",,,
